Measurements published in US20240092835A1, “NOVEL PEPTIDES CAPABLE OF ALTERING NK CELL ACTIVITY” (Massachusetts Institute of Technology, priority 2022, published 2024).
Entries after “also recorded” stand apart in the source; their conditions may differ. Where no end group is shown, it is not given here.

How the values were obtained:
[1] = target: T1, HLA-E (Homo sapiens, UniProt P13747); assay: HLA-E surface stabilization assay with RMA-S/HLA-E cells; type: cell-based; conditions: 30 μM peptide, 16 hours; for HLA-E surface expression stability (GeoMFI): anti-HLA-E antibody
T1 construct: expressed in transfected cells; host or cells: RMA-S/HLA-E cells (antigen processing-defective lymphoma cell line)
T1 sequence (P13747 22-358): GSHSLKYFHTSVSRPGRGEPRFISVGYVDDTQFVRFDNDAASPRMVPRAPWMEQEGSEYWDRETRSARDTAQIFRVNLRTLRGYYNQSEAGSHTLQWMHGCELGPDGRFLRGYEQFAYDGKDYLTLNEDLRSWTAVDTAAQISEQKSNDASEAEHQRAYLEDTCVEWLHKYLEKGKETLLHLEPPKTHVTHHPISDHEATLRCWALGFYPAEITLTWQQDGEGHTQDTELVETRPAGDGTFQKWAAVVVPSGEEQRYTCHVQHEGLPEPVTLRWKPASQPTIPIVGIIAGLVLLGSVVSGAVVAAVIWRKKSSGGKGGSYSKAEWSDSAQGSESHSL
T1 sequence (P61769 21-119 partner): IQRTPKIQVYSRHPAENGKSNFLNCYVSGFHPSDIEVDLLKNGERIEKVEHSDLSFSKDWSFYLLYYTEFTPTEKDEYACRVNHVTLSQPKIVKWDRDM
Protocol: HLA-E surface expression was assessed by measuring geometric mean fluorescence intensity (GeoMFI) in RMA-S cells following immunofluorescence staining with an anti-HLA-E antibody (Table 14). Increased GeoMFI was indicative of increased HLA-E surface expression stability following novel peptide exposures (FIG. 3).

[2] = target: CD94/NKG2C (Homo sapiens, UniProt P26717+Q13241); assay: Steady-state surface plasmon resonance of peptide-HLA-E complex with CD94/NKG2C; type: binding; conditions: for Binding of peptide-HLA-E complexes to CD94/NKG2C normalized to a theoretical Rmax: steady-state SPR
Chain of CD94/NKG2C (P26717 94-231 limits assumed): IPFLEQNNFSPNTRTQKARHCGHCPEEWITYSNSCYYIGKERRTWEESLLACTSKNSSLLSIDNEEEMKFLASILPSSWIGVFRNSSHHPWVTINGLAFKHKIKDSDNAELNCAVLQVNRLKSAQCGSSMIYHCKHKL
Chain of CD94/NKG2C (Q13241 32-179 limits assumed): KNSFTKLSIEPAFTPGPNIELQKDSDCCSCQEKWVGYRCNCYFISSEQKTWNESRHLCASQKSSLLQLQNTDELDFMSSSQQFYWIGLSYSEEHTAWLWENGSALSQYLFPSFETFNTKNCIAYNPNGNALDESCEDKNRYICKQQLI
Protocol: Binding affinity of novel peptides linked to HLA-E was determined using surface plasmon resonance (SPR), a methodology used to study protein-protein interactions (Tables 15-19). The peptide-HLA-E complex (generated as a single chain trimer) was immobilized on the sensor chip surface and CD94/NKG2A or CD94/NKG2C were flowed over. Steady-state surface plasmon resonance experiments were performed with a Biacore T200 instrument. CD94/NKG2x in HBS-EP+ buffer was injected as analyte in a concentration range of 0.1 μM to 102.4 μM and flow rate of 10 μL/min at 25° C. Data was fit with Prism 9.4 (GraphPad Software Inc; San Diego CA) to a “one site, specific binding” model. Series S CM5 chips were coupled to neutravidin and utilized. Biotinylated pMHC was immobilized at approximately 400 RU. KD values calculated by Biacore software are reported. Rmax, fit values were calculated by Biacore software. Rmax, theoretical values were calculated using the analyte/ligand mass ratio (0.66) multiplied by the amount of ligand coupled to the chip.

[3] = test system: NKG2A−/NKG2C− NK cells; assay: NK cell activation markers in control NKG2A-/NKG2C- NK cells incubated with peptide and K562 expressing HLA-E; type: cell-based, human
Method in brief: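 K562 + HLA-E, pulsed with human/CMV proteome peptides → incubated with sorted NK subsets → surface marker staining, % positive cells. Increase = activation; decrease = inhibition.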

TGPWRSLWI [human3, TGPWRSLWI]
HLA-E surface expression stability (GeoMFI) ([1]; Trial 1): 510 GeoMFI
HLA-E surface expression stability (GeoMFI) ([1]; Trial 2): 428 GeoMFI
HLA-E surface expression stability (GeoMFI) ([1]; Trial 3): 421 GeoMFI
HLA-E surface expression stability (GeoMFI) ([1]; Trial 4): 596 GeoMFI
HLA-E surface expression stabilization strength (in words) ([1]; listed as GTF3C5293-301): closest to the experimental negative control (DMSO); also recorded: lowest
binding of peptide-HLA-E complex to CD94/NKG2C normalized to a fitted Rmax ([2]; CD94/NKG2C concentration 0 μM): 0.006
binding of peptide-HLA-E complex to CD94/NKG2C normalized to a fitted Rmax ([2]; CD94/NKG2C concentration 0.1 μM): 0.008
binding of peptide-HLA-E complex to CD94/NKG2C normalized to a fitted Rmax ([2]; CD94/NKG2C concentration 0.2 μM): 0.007
binding of peptide-HLA-E complex to CD94/NKG2C normalized to a fitted Rmax ([2]; CD94/NKG2C concentration 0.4 μM): 0.011
binding of peptide-HLA-E complex to CD94/NKG2C normalized to a fitted Rmax ([2]; CD94/NKG2C concentration 0.8 μM): 0.016
binding of peptide-HLA-E complex to CD94/NKG2C normalized to a fitted Rmax ([2]; CD94/NKG2C concentration 1.6 μM): 0.026
binding of peptide-HLA-E complex to CD94/NKG2C normalized to a fitted Rmax ([2]; CD94/NKG2C concentration 3.2 μM): 0.044
binding of peptide-HLA-E complex to CD94/NKG2C normalized to a fitted Rmax ([2]; CD94/NKG2C concentration 6.4 μM): 0.078
binding of peptide-HLA-E complex to CD94/NKG2C normalized to a fitted Rmax ([2]; CD94/NKG2C concentration 12.8 μM): 0.130
binding of peptide-HLA-E complex to CD94/NKG2C normalized to a fitted Rmax ([2]; CD94/NKG2C concentration 25.6 μM): 0.219
binding of peptide-HLA-E complex to CD94/NKG2C normalized to a fitted Rmax ([2]; CD94/NKG2C concentration 51.2 μM): 0.353
binding of peptide-HLA-E complex to CD94/NKG2C normalized to a fitted Rmax ([2]; CD94/NKG2C concentration 102.4 μM): 0.537
Binding of peptide-HLA-E complexes to CD94/NKG2C normalized to a theoretical Rmax ([2]; CD94/NKG2C analyte concentration 0 μM): 0.002
Binding of peptide-HLA-E complexes to CD94/NKG2C normalized to a theoretical Rmax ([2]; CD94/NKG2C analyte concentration 0.1 μM): 0.003
Binding of peptide-HLA-E complexes to CD94/NKG2C normalized to a theoretical Rmax ([2]; CD94/NKG2C analyte concentration 0.2 μM): 0.003
Binding of peptide-HLA-E complexes to CD94/NKG2C normalized to a theoretical Rmax ([2]; CD94/NKG2C analyte concentration 0.4 μM): 0.004
Binding of peptide-HLA-E complexes to CD94/NKG2C normalized to a theoretical Rmax ([2]; CD94/NKG2C analyte concentration 0.8 μM): 0.006
Binding of peptide-HLA-E complexes to CD94/NKG2C normalized to a theoretical Rmax ([2]; CD94/NKG2C analyte concentration 1.6 μM): 0.010
Binding of peptide-HLA-E complexes to CD94/NKG2C normalized to a theoretical Rmax ([2]; CD94/NKG2C analyte concentration 3.2 μM): 0.017
Binding of peptide-HLA-E complexes to CD94/NKG2C normalized to a theoretical Rmax ([2]; CD94/NKG2C analyte concentration 6.4 μM): 0.030
Binding of peptide-HLA-E complexes to CD94/NKG2C normalized to a theoretical Rmax ([2]; CD94/NKG2C analyte concentration 12.8 μM): 0.050
Binding of peptide-HLA-E complexes to CD94/NKG2C normalized to a theoretical Rmax ([2]; CD94/NKG2C analyte concentration 25.6 μM): 0.084
Binding of peptide-HLA-E complexes to CD94/NKG2C normalized to a theoretical Rmax ([2]; CD94/NKG2C analyte concentration 51.2 μM): 0.135
Binding of peptide-HLA-E complexes to CD94/NKG2C normalized to a theoretical Rmax ([2]; CD94/NKG2C analyte concentration 102.4 μM): 0.205
percentage CCL3+ NK cells ([3]; Trial 1): 38.1%
percentage CD107+ NK cells ([3]; Trial 1): 28.9%
percentage TNF+ NK cells ([3]; Trial 1): 4.31%
percentage of IFNG+ NK cells ([3]; Trial 1): 17.2%
percentage CCL3+ NK cells ([3]; Trial 2): 61%
percentage CD107+ NK cells ([3]; Trial 2): 37.9%
percentage TNF+ NK cells ([3]; Trial 2): 8.81%
percentage of IFNG+ NK cells ([3]; Trial 2): 26.9%
percentage CCL3+ NK cells ([3]; Trial 3): 55.4%
percentage CD107+ NK cells ([3]; Trial 3): 50.4%
percentage TNF+ NK cells ([3]; Trial 3): 20.8%
percentage of IFNG+ NK cells ([3]; Trial 3): 44%
percentage CCL3+ NK cells ([3]; Trial 4): 36.6%
percentage CD107+ NK cells ([3]; Trial 4): 32.6%
percentage TNF+ NK cells ([3]; Trial 4): 11.3%
percentage of IFNG+ NK cells ([3]; Trial 4): 21.2%
percentage CCL3+ NK cells ([3]; Trial 5): 31%
percentage CD107+ NK cells ([3]; Trial 5): 26.2%
percentage TNF+ NK cells ([3]; Trial 5): 8.06%
percentage of IFNG+ NK cells ([3]; Trial 5): 19.1%
percentage CCL3+ NK cells ([3]; Trial 6): 26.5%
percentage CD107+ NK cells ([3]; Trial 6): 18.6%
